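Step 1: Grow cells in 96-well plates. Step 2: Expose to compound for 48 hours at 5 concentrations. Step 3: Interpolate endpoints linearly; if unreached, use highest concentration. TGI: concentration producing complete growth inhibition.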
What was measured:
Experiment in all cases: inhibition of tumour cell growth, NCI panel, 48 h
UACC-257 melanoma = test system: UACC-257 melanoma
MCF7 breast = test system: MCF7 breast
HS 578T breast = test system: HS 578T breast
MALME-3M melanoma = test system: MALME-3M melanoma
HCC-2998 colon = test system: HCC-2998 colon
K-562 leukemia = test system: K-562 leukemia
COLO 205 colon = test system: COLO 205 colon
TK-10 renal = test system: TK-10 renal
OVCAR-4 ovarian = test system: OVCAR-4 ovarian
MDA-MB-231 breast = test system: MDA-MB-231 breast
SR leukemia = test system: SR leukemia
DU-145 prostate = test system: DU-145 prostate
SK-MEL-2 melanoma = test system: SK-MEL-2 melanoma
786-0 renal = test system: 786-0 renal
SF-295 CNS = test system: SF-295 CNS
MOLT-4 leukemia = test system: MOLT-4 leukemia
OVCAR-8 ovarian = test system: OVCAR-8 ovarian
U251 CNS = test system: U251 CNS
HOP-92 NSCLC = test system: HOP-92 NSCLC
T-47D breast = test system: T-47D breast

SMILES | TGI (UACC-257 melanoma) [µM] | TGI (MCF7 breast) [µM] | TGI (HS 578T breast) [µM] | TGI (MALME-3M melanoma) [µM] | TGI (HCC-2998 colon) [µM] | TGI (K-562 leukemia) [µM] | TGI (COLO 205 colon) [µM] | TGI (TK-10 renal) [µM] | TGI (OVCAR-4 ovarian) [µM] | TGI (MDA-MB-231 breast) [µM] | TGI (SR leukemia) [µM] | TGI (DU-145 prostate) [µM] | TGI (SK-MEL-2 melanoma) [µM] | TGI (786-0 renal) [µM] | TGI (SF-295 CNS) [µM] | TGI (MOLT-4 leukemia) [µM] | TGI (OVCAR-8 ovarian) [µM] | TGI (U251 CNS) [µM] | TGI (HOP-92 NSCLC) [µM] | TGI (T-47D breast) [µM]
Cc1cccc(CC(Cc2c(C)cccc2C(=O)O)C(=O)O)c1 (configuration not stated) | > 100 | > 100 | > 100 | > 100 | > 100 | > 100 | > 100 | > 100 | > 100 | > 100 | > 100 | > 100 | > 100 | > 100 | > 100 | > 100 | > 100 | > 100 | – | –
O=C(Cc1csc(-c2nc(CC(=O)NNc3ccccc3)cs2)n1)NNc1ccccc1 | > 100 | – | – | > 100 | > 100 | > 100 | 64 | > 100 | > 100 | – | 53.6 | – | > 100 | > 100 | > 100 | > 100 | > 100 | > 100 | > 100 | –
COc1ccc(C2Oc3cc(OC)c(O)c(C)c3[C@H]2C)cc1 (some centres not stated) | > 100 | – | – | > 100 | > 100 | > 100 | > 100 | > 100 | > 100 | – | – | – | > 100 | > 100 | > 100 | 89.3 | > 100 | > 100 | > 100 | –
COc1cc(C)cc2c1c(=O)c1ccccc1n2C | > 100 | > 100 | 78.9 | > 100 | > 100 | 39.4 | 79.1 | > 100 | > 100 | > 100 | 78.7 | > 100 | 49.9 | > 100 | 45.3 | > 100 | > 100 | 96.1 | 91.8 | –
CCOC(=O)Cc1csc2[n+]1C(=O)/C(=C/c1cccc(OC)c1O)S2 | > 100 | > 100 | – | – | > 100 | – | > 100 | > 100 | > 100 | > 100 | – | > 100 | > 100 | > 100 | > 100 | > 100 | > 100 | > 100 | > 100 | > 100
CC(C)(C)NC(=O)NC12CC3CC(CC(F)(C3)C1)C2 | > 100 | – | – | > 100 | > 100 | > 100 | > 100 | > 100 | – | – | – | – | > 100 | > 100 | – | > 100 | > 100 | > 100 | > 100 | –
CS(=O)(=O)c1c(N)c2nc(Cl)cn2c2nc3ccccc3nc12 | > 100 | – | – | > 100 | > 100 | > 100 | > 100 | – | > 100 | – | > 100 | – | > 100 | > 100 | > 100 | > 100 | > 100 | > 100 | – | –
C/C=C1/CN2CCC3(O)c4ccccc4N4C=C(C(=O)OC)C1CC2C43O (configuration not stated) | > 100 | > 100 | > 100 | > 100 | > 100 | > 100 | > 100 | > 100 | > 100 | – | > 100 | > 100 | – | > 100 | > 100 | > 100 | > 100 | > 100 | > 100 | > 100
Clc1ccccc1C1=NN(c2ccccc2)C2c3ccccc3OCC12 (configuration not stated) | > 100 | – | – | > 100 | > 100 | > 100 | > 100 | > 100 | – | – | – | – | > 100 | > 100 | > 100 | > 100 | > 100 | > 100 | > 100 | –
O=C(NNC(c1ccccc1)C(F)(F)F)c1ccncc1 (configuration not stated) | > 100 | > 100 | – | > 100 | > 100 | > 100 | > 100 | > 100 | > 100 | > 100 | > 100 | > 100 | > 100 | > 100 | > 100 | > 100 | > 100 | > 100 | > 100 | –
CC(C)CCC[C@@H](C)C1CCC2[C@@H]3CC=C4C[C@@H](C(=O)NCC[N+](C)(C)CCCS(=O)(=O)[O-])CC[C@]4(C)C3CC[C@@]21C (some centres not stated) | 34.8 | – | – | 33.3 | 35.2 | 29.9 | 31.9 | – | 35.9 | – | – | – | 32.4 | 31.1 | 35 | 35.1 | 35 | 31.2 | – | –
O=C(Nc1cc2c(=O)oc3ccccc3c2oc1=O)c1cccnc1 | > 100 | > 100 | – | > 100 | > 100 | > 100 | > 100 | > 100 | > 100 | > 100 | > 100 | > 100 | > 100 | > 100 | > 100 | > 100 | > 100 | > 100 | > 100 | > 100
C/C(=N\Nc1nc2ccccc2n1C)c1cnccn1 | > 25 | > 100 | – | > 100 | > 100 | > 100 | > 100 | > 100 | > 100 | 71.9 | > 100 | > 100 | > 100 | > 39.2 | > 100 | > 100 | > 100 | > 100 | 6.83 | > 100
Cc1nc(C(N)=S)sc1C(/C=C/c1ccc(Cl)c(Cl)c1)=N/NC(C)(C)C | > 100 | > 100 | > 100 | – | > 100 | – | > 100 | > 100 | > 100 | > 100 | – | > 100 | > 100 | > 100 | > 100 | 80.5 | > 100 | > 100 | > 100 | –

From PubChem BioAssay (NCI)
